Experimental data published in the supplement of paper PMC10307832.

Columns and labels:
Test in all cases: relative viability (nuclei count vs DMSO), 5 days (fraction); higher = more cells survive
[1] = compound: COc1cc(Nc2ncc(F)c(Nc3ccc4c(n3)NC(=O)C(C)(C)O4)n2)cc(OC)c1OC [R406] + CC(=O)c1c(C)c2cnc(Nc3ccc(N4CCNCC4)cn3)nc2n(C2CCCC2)c1=O [Palbociclib] (partner 0.5 µM)
Outline: (§1)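 Values are medians from duplicate plates. Each reflects relative viability, defined as the nuclei count of treated wells over that of vehicle wells. Lung cancer cell lines in 1536-well plates were pin-tool dosed one day after seeding with one drug alone or with a fixed anchor-drug dose plus five library-drug doses (not always all listed) in √10 steps, then fixed, stained and imaged at 4× after 5 days.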

[2] = compound: COc1cc(Nc2ncc(F)c(Nc3ccc4c(n3)NC(=O)C(C)(C)O4)n2)cc(OC)c1OC [R406] + CCNC(=O)c1noc(-c2cc(C(C)C)c(O)cc2O)c1-c1ccc(CN2CCOCC2)cc1 [Luminespib] (partner 0.01 µM)
Outline: as §1

[3] = compound: COc1cc(Nc2ncc(F)c(Nc3ccc4c(n3)NC(=O)C(C)(C)O4)n2)cc(OC)c1OC [R406] + NC(=O)Nc1cc(-c2cccc(F)c2)sc1C(=O)N[C@H]1CCCNC1 [AZD7762] (partner 0.2 µM)
Outline: as §1

[4] = compound: O=C(/C=C/c1cccnc1)NCCCCC1CCN(C(=O)c2ccccc2)CC1 [Daporinad] + CC(=O)c1c(C)c2cnc(Nc3ccc(N4CCNCC4)cn3)nc2n(C2CCCC2)c1=O [Palbociclib] (partner 0.5 µM)
Outline: as §1

Row | Cell Line | relative viability ([1]; first compound 0.08 µM) | relative viability ([1]; first compound 0.253 µM) | relative viability ([1]; first compound 0.8 µM) | relative viability ([1]; first compound 2.53 µM) | relative viability ([1]; first compound 8 µM) | relative viability ([2]; first compound 0.08 µM) | relative viability ([2]; first compound 0.253 µM) | relative viability ([2]; first compound 0.8 µM) | relative viability ([2]; first compound 2.53 µM) | relative viability ([2]; first compound 8 µM) | relative viability ([3]; first compound 0.08 µM) | relative viability ([3]; first compound 0.253 µM) | relative viability ([3]; first compound 0.8 µM) | relative viability ([3]; first compound 2.53 µM) | relative viability ([3]; first compound 8 µM) | relative viability ([4]; first compound 0.0005 µM) | relative viability ([4]; first compound 0.001581 µM) | relative viability ([4]; first compound 0.005 µM) | relative viability ([4]; first compound 0.01581 µM)
1 | LCLC-103H | 0.45 | 0.507 | 0.529 | 0.46 | 0.319 | 0.843 | 1.05 | 1.23 | 0.701 | 0.663 | 0.662 | 0.844 | 0.813 | 0.747 | 0.569 | 0.526 | 0.556 | 0.503 | 0.518
2 | RERF-LC-KJ | 1.04 | 1.19 | 1.07 | 0.883 | 0.86 | 1.25 | 1.3 | 1.19 | 1.25 | 0.725 | 1 | 1.23 | 1.29 | 0.692 | 0.988 | 1.08 | 1.06 | 1.09 | 1.07
3 | BEN | 0.439 | 0.502 | 0.495 | 0.561 | 0.422 | 0.365 | 0.343 | 0.22 | 0.214 | 0.392 | 0.816 | 0.814 | 0.796 | 0.828 | 0.523 | 0.528 | 0.459 | 0.433 | 0.599
4 | NCI-H1666 | 0.653 | 0.662 | 0.678 | 0.675 | 0.638 | 1.02 | 1.16 | 1.03 | 1.05 | 0.64 | 1.12 | 0.937 | 0.893 | 0.892 | 0.773 | 0.653 | 0.679 | 0.624 | 0.69
5 | LC-2-ad | 0.414 | 0.571 | 0.501 | 0.408 | 0.277 | 0.982 | 1.13 | 0.916 | 0.456 | 0.42 | 0.856 | 0.898 | 0.89 | 0.827 | 0.343 | 0.463 | 0.511 | 0.491 | 0.486
6 | ChaGo-K-1 | 0.768 | 0.98 | 1.02 | 0.928 | 0.706 | 0.613 | 0.548 | 0.652 | 0.404 | 0.473 | 0.799 | 0.957 | 0.999 | 0.873 | 0.744 | 0.914 | 0.908 | 0.786 | 0.327
7 | NCI-H1975 | 0.537 | 0.734 | 0.644 | 0.115 | 0.192 | 0.25 | 0.227 | 0.187 | 0.143 | 0.116 | – | 0.757 | 0.771 | 0.341 | 0.325 | 0.565 | 0.602 | 0.613 | 0.705
8 | NCI-H1993 | 0.651 | 0.667 | 0.611 | 0.683 | 0.607 | 0.78 | 1.11 | 0.988 | 0.359 | 0.577 | 0.741 | 1.1 | 0.727 | 0.719 | 0.537 | 0.583 | 0.563 | 0.719 | 0.706
9 | NCI-H23 | 0.496 | 0.539 | 0.629 | 0.454 | 0.155 | 0.217 | 0.251 | 0.228 | 0.181 | 0.168 | 0.215 | 0.265 | 0.283 | 0.25 | 0.269 | 0.578 | 0.467 | 0.463 | 0.275
10 | EMC-BAC-2 | 0.518 | 0.538 | 0.508 | 0.44 | 0.378 | 1.14 | 1.15 | 1.27 | 0.745 | 0.532 | 1.05 | 1.26 | 1.17 | 1.04 | 0.391 | 0.513 | 0.546 | 0.41 | 0.327
11 | NCI-H2405 | 0.52 | 0.561 | 0.517 | 0.364 | 0.2 | 0.651 | 0.954 | 0.766 | 0.26 | 0.241 | 0.715 | 0.869 | 0.85 | 0.692 | 0.244 | 0.54 | 0.577 | 0.555 | 0.415
12 | NCI-H1944 | 0.333 | 0.312 | 0.329 | 0.252 | 0.241 | 0.686 | 0.805 | 0.759 | 0.369 | 0.517 | 0.484 | 0.449 | 0.523 | 0.388 | 0.349 | 0.36 | 0.356 | 0.374 | 0.353
13 | NCI-H358 | 0.12 | 0.192 | 0.126 | 0.0867 | 0.0882 | 0.313 | 0.555 | 0.492 | 0.147 | 0.136 | 0.502 | 0.472 | 0.509 | 0.272 | 0.217 | 0.111 | 0.135 | 0.154 | 0.153
14 | EPLC-272H | 0.329 | 0.337 | 0.326 | 0.246 | 0.303 | 0.259 | 0.264 | 0.337 | 0.106 | 0.0888 | 0.21 | 0.252 | 0.337 | 0.199 | 0.15 | 0.338 | 0.307 | 0.697 | 0.351
15 | NCI-H1915 | 0.536 | 0.567 | 0.529 | 0.488 | 0.521 | 0.819 | 0.886 | 0.982 | – | 0.624 | 0.687 | 0.751 | 0.735 | 0.614 | 0.614 | 0.569 | 0.508 | 0.61 | 0.521
16 | NCI-H647 | 0.387 | 0.37 | 0.426 | 0.261 | 0.0695 | 0.235 | 0.191 | 0.348 | 0.128 | 0.123 | 0.373 | 0.419 | 0.467 | 0.413 | 0.29 | 0.251 | 0.429 | 0.414 | 0.363
17 | NCI-H322M | 0.463 | 0.452 | 0.468 | 0.456 | 0.354 | 0.791 | 0.827 | 0.855 | 0.306 | 0.35 | 0.453 | 0.54 | 0.588 | 0.36 | 0.423 | 0.495 | 0.565 | 0.449 | 0.512
